Reference: patent US8778921B2, “Ansamycin hydroquinone compositions” (Infinity Pharmaceuticals, Inc., priority 2008, dated 2014)
Counter-ions that a name gives are not always drawn. Each block holds one molecule with its values, some of them ahead of it.

Assay: Stability at 40° C. and 75% relative humidity (percent purity by HPLC)
Format: physicochemical
Conditions: 40° C. and 75% RH; for Percent Purity of 17-AAG T = 0 Days / Percent Purity of 17-AAG T = 21 Days: Table 8; for Percent Purity of 17-BAG T = 0 Days / Percent Purity of 17-BAG T = 21 Days: Table 4; for Percent Purity of 17-FEAG T = 0 Days / Percent Purity of 17-FEAG T = 21 Days: Table 6
Procedure: As used herein, a “stable composition” refers a composition comprising a sulfur-containing compound and a baseline amount of the compound of formula (I) (e.g., such as percent purity as measured by HPLC) such that, after being subjected to standard stability conditions (e.g., 40° C. and 75% relative humidity) for a specified period of time (e.g., 1 day, 2 days, 3 days, 4 days, 5 days, 7 days, 14 days, 21 days, or 30 days), at least about 80% of the original amount of the compound of formula (I) remains in the composition (i.e., has not oxidized to a compound of formula (II) or degraded to other by-products). In certain embodiments, at least about 85%, at least about 90%, at least about 91%, at least about 92%, at least about 93%, at least about 94%, or at least about 95% of the original amount of the hydroquinone compound of formula (I) remains in the composition for a specified period of time (e.g., 1 day, 2 days, 3 days, 4 days, 5 days, 7 days, 14 days, 21 days, or 30 days).
The stability data for 17-AG-HQ of Example 2 when kept at 40° C. and 75% relative humidity (RH) is depicted in FIG. 8 (see Table 2 for tabulated stability data). It was observed that 17-AG-HQ of Example 2 completely oxidizes to its quinone form in two weeks at 40° C. and […] as determined by HPLC.

[1] = Table 14, formulations of 17-AG-HQ of Example 3
[2] = Table 15, NaHSO3/mineral oil formulation of 17-AG-HQ of Example 3

Compound: C=CCNc1c(O)cc2c(O)c1C[C@@H](C)C[C@H](OC)[C@H](O)[C@@H](C)/C=C(\C)[C@H](OC(N)=O)[C@@H](OC)/C=C\C=C(/C)C(=O)N2 [17-AAG-HQ of Example 11A, 17-allylamino-geldanamycin hydroquinone]
- stability over a period of time compared to 17-AAG-HQ of Example 11B: greater stability
- Percent Purity of 17-AAG T = 0 Days (T = 0 Days): 99%
- Percent Purity of 17-AAG T = 21 Days (T = 21 Days): 97%

Compound: C=CCNc1c(O)cc2c(O)c1C[C@@H](C)C[C@H](OC)[C@H](O)[C@@H](C)/C=C(\C)[C@H](OC(N)=O)[C@@H](OC)/C=C\C=C(/C)C(=O)N2 [17-AAG-HQ of Example 11B, 17-allylamino-geldanamycin hydroquinone]
- Percent Purity of 17-AAG T = 0 Days (T = 0 Days): 97%
- Percent Purity of 17-AAG T = 21 Days (T = 21 Days): 2%
- Percent Purity of 17-AAG-HQ T = 0 Days (Table 19, Example 11B Formulations, T = 0 Days): 97%
- Percent Purity of 17-AAG-HQ T = 21 Days (Table 19, Example 11B Formulations, T = 21 Days): 2%

Compound: CO[C@H]1/C=C\C=C(/C)C(=O)Nc2cc(O)c(N)c(c2O)C[C@@H](C)C[C@H](OC)[C@H](O)[C@@H](C)/C=C(\C)[C@@H]1OC(N)=O [17-AG-HQ of Example 3, 17-amino-geldanamycin hydroquinone]
- stability over a period of time compared to 17-AG-HQ of Example 2: greater stability
- Percent Purity of 17-AG-HQ T = 0 Days (Table 2, T = 0 Days): 97%
- Percent Purity of 17-AG-HQ T = 2 Days (Table 2, T = 2 Days): 93%
- Percent Purity of 17-AG-HQ T = 5 Days (Table 2): 91%
- Percent Purity of 17-AG-HQ T = 14 Days (Table 2): 87%
- Percent Purity of 17-AG-HQ T = 21 Days (Table 2, T = 21 Days): 81%
- Percent Purity of 17-AG-HQ T = 30 Days (Table 2): 79%
- Percent Purity of 17-AG-HQ T = 0 Days (Table 14, formulations of 17-AG-HQ of Example 3, T = 0 Days): 97%
- Percent Purity of 17-AG-HQ T = 5 Days [1]: 91%
- Percent Purity of 17-AG-HQ T = 14 Days [1]: 87%
- Percent Purity of 17-AG-HQ T = 21 Days (Table 14, formulations of 17-AG-HQ of Example 3, T = 21 Days): 81%
- Percent Purity of 17-AG-HQ T = 0 Days (Table 15, NaHSO3/mineral oil formulation of 17-AG-HQ of Example 3, T = 0 Days): 97%
- Percent Purity of 17-AG-HQ T = 5 Days [2]: 91%
- Percent Purity of 17-AG-HQ T = 14 Days [2]: 87%
- Percent Purity of 17-AG-HQ T = 21 Days (Table 15, NaHSO3/mineral oil formulation of 17-AG-HQ of Example 3, T = 21 Days): 81%

Compound: CO[C@H]1/C=C\C=C(/C)C(=O)Nc2cc(O)c(N)c(c2O)C[C@@H](C)C[C@H](OC)[C@H](O)[C@@H](C)/C=C(\C)[C@@H]1OC(N)=O [17-AG-HQ of Example 4, 17-amino-geldanamycin hydroquinone]
- stability over a period of time compared to Examples 2 and 3: greater stability
- Percent Purity of 17-AG-HQ T = 0 Days (Table 2, T = 0 Days): 99%
- Percent Purity of 17-AG-HQ T = 30 Days (Table 2): 97%

Compound: CO[C@H]1/C=C\C=C(/C)C(=O)Nc2cc(O)c(N)c(c2O)C[C@@H](C)C[C@H](OC)[C@H](O)[C@@H](C)/C=C(\C)[C@@H]1OC(N)=O [17-AG-HQ of Example 5, 17-amino-geldanamycin hydroquinone]
- stability over a period of time compared to Examples 2, 3 and 4: greatest stability
- Percent Purity of 17-AG-HQ T = 0 Days (Table 2, T = 0 Days): 99%
- Percent Purity of 17-AG-HQ T = 30 Days (Table 2): 98%

Compound: CO[C@H]1/C=C\C=C(/C)C(=O)Nc2cc(O)c(N)c(c2O)C[C@@H](C)C[C@H](OC)[C@H](O)[C@@H](C)/C=C(\C)[C@@H]1OC(N)=O [17-AG-HQ of Example 6A, 17-amino-geldanamycin hydroquinone]
- stability over a period of time compared to 17-AG-HQ of Example 6B: greater stability
- Percent Purity of 17-AG-HQ T = 0 Days (Table 2, T = 0 Days): 97%
- Percent Purity of 17-AG-HQ T = 21 Days (Table 2, T = 21 Days): 83%

Compound: CO[C@H]1/C=C\C=C(/C)C(=O)Nc2cc(O)c(N)c(c2O)C[C@@H](C)C[C@H](OC)[C@H](O)[C@@H](C)/C=C(\C)[C@@H]1OC(N)=O [17-AG-HQ of Example 6B, 17-amino-geldanamycin hydroquinone]
- time in which the hydroquinone completely oxidizes to its quinone form (determined by HPLC): 3 weeks
- Percent Purity of 17-AG-HQ T = 0 Days (Table 2, T = 0 Days): 97%
- Percent Purity of 17-AG-HQ T = 21 Days (Table 2, T = 21 Days): 13%
- Percent Purity of 17-AG-HQ T = 0 Days (Table 16, Example 6B Formulations, T = 0 Days): 97%
- Percent Purity of 17-AG-HQ T = 21 Days (Table 16, Example 6B Formulations, T = 21 Days): 13%

Compound: CO[C@H]1/C=C\C=C(/C)C(=O)Nc2cc(O)c(N)c(c2O)C[C@@H](C)C[C@H](OC)[C@H](O)[C@@H](C)/C=C(\C)[C@@H]1OC(N)=O [17-AG-HQ-HCl salt, 17-amino geldanamycin hydroquinone HCl Salt]
- Percent Purity of 17-AG-HQ T = 0 Days (Table 2, T = 0 Days): 99%
- Percent Purity of 17-AG-HQ T = 14 Days (Table 2): 88%
- Percent Purity of 17-AG-HQ T = 30 Days (Table 2): 74%

- stability over a period of time compared to 17-BAG-HQ of Example 8B: greater stability
- Percent Purity of 17-BAG T = 0 Days (T = 0 Days): 98%
- Percent Purity of 17-BAG T = 21 Days (T = 21 Days): 96%
Compound: CO[C@H]1/C=C\C=C(/C)C(=O)Nc2cc(O)c(NCc3ccccc3)c(c2O)C[C@@H](C)C[C@H](OC)[C@H](O)[C@@H](C)/C=C(\C)[C@@H]1OC(N)=O [17-BAG-HQ of Example 8A, 17-benzylamino-geldanamycin hydroquinone]

- Percent Purity of 17-BAG T = 0 Days (T = 0 Days): 98%
- Percent Purity of 17-BAG T = 21 Days (T = 21 Days): 11%
- Percent Purity of 17-BAG-HQ T = 0 Days (Table 17, Example 8B Formulations, T = 0 Days): 98%
- Percent Purity of 17-BAG-HQ T = 21 Days (Table 17, Example 8B Formulations, T = 21 Days): 11%
Compound: CO[C@H]1/C=C\C=C(/C)C(=O)Nc2cc(O)c(NCc3ccccc3)c(c2O)C[C@@H](C)C[C@H](OC)[C@H](O)[C@@H](C)/C=C(\C)[C@@H]1OC(N)=O [17-BAG-HQ of Example 8B, 17-benzylamino-geldanamycin hydroquinone]

- stability over a period of time compared to 17-FEAG-HQ of Example 10B: greater stability
- Percent Purity of 17-FEAG T = 0 Days (T = 0 Days): 99%
- Percent Purity of 17-FEAG T = 21 Days (T = 21 Days): 96%
Compound: CO[C@H]1/C=C\C=C(/C)C(=O)Nc2cc(O)c(NCCF)c(c2O)C[C@@H](C)C[C@H](OC)[C@H](O)[C@@H](C)/C=C(\C)[C@@H]1OC(N)=O [17-FEAG-HQ of Example 10A, 17-(2-fluoroethylamino)-geldanamycin hydroquinone]

- Percent Purity of 17-FEAG T = 0 Days (T = 0 Days): 97%
- Percent Purity of 17-FEAG T = 21 Days (T = 21 Days): 0%
- Percent Purity of 17-FEAG-HQ T = 0 Days (Table 18, Example 10B Formulations, T = 0 Days): 97%
- Percent Purity of 17-FEAG-HQ T = 21 Days (Table 18, Example 10B Formulations, T = 21 Days): 0%
Compound: CO[C@H]1/C=C\C=C(/C)C(=O)Nc2cc(O)c(NCCF)c(c2O)C[C@@H](C)C[C@H](OC)[C@H](O)[C@@H](C)/C=C(\C)[C@@H]1OC(N)=O [17-FEAG-HQ of Example 10B, 17-(2-fluoroethylamino)-geldanamycin hydroquinone]
